This is an account of results in patent publication US9370529B2, “Tannin inhibitors of HIV” (priority 2012, dated 2016).

Some results are limits rather than exact numbers.

In one series the test system is CXCR4 tropic HIV NL4-3. The series can be described thus: HIV-infection study in HeLa37 cells (HIV antigen-positive cell count, % control). Format: cell-based, HIV-1. Conditions: for TI (therapeutic index, cytotoxicity/antiviral activity): CC50/IC50; for IC50: Human immunodeficiency virus 1, NL43, HeLa37 cells, 40 h, MOI=0.01, FIG. 1/FIG. 2, read-out: IC50 (anti-HIV activity). How it is done: Stocks of HIV-1 were generated by transfecting a 150 cm plate of 80% confluent HEK 293T cells with 75 μg of the HIV molecular clone pNL4-3 by using the CaPO4 procedure of F. L. Graham et al., J. Gen. Viol., 36, 59 (1977). Supernatants were collected at 48-h post-transfection, clarified to remove cell debris and frozen at −80° C. until needed. Virus production was assessed by reverse transcriptase activity in the viral stocks and by the single round of infection assay in HeLa37 cells described below. RT assays were performed as described by R. L. Wiley, PNAS USA, 83, 5038 (1986).
(§1) All extracts or fractions were resuspended in DMSO. 2.5×10^2 infectious particles of HIV (MOI=0.01) were combined with the concentrations of IA or IB noted in the figures. The amount of DMSO was adjusted so that equivalent concentrations of DMSO were used in all wells. […] The tannin and HIV mixture was added to 2.5×10^4 cells/well of HeLa37 cells in a 48-well format. The cells were maintained for 40 h at 37° C. in a CO2 incubator. Cells were fixed in 75% acetone/25% water and immunostained for HIV antigens with human anti-HIV antisera (1:500) followed by HRP-conjugated goat anti-human IgG (1:500). 3-amino-9-ethyl-carbazole was used as the horse radish peroxidase substrate. Plates were dried and wells were counted for the number of HIV antigen-positive cells.

Series [1] is described as follows: Cell-viability study (ATPLite Assay). Format: cell-based. Particulars: human; HeLa37 cells, 40 h after treatment initiation. How it is done: HeLa37 cells were plated and treated with IA or IB as described above. Cell viability was monitored at 40 h after treatment initiation by ATPLite Assay (Packard Biosciences) per manufacturer's instructions.
For orientation: In ATP-based viability assays light output follows the ATP content of the culture.

For another series, the system named is CCR5 tropic HIV AD8. The series can be described thus: HIV-infection study in HeLa37 cells, CCR5 tropic virus. The series is classed as cell-based. Conditions: FIG. 2; equivalent concentrations. The protocol:
as §1

In general, IC50 refers to the midpoint of a concentration-inhibition curve. Broadly, the CC50 is the concentration at which the toxic effect on the cells reaches its halfway point. Take `CO[C@@H]1OC2COC(=O)c3cc(O)c(O)c(O)c3-c3c(cc(O)c(O)c3O)C(=O)O[C@H]2C(O)C1O` (stereo partly drawn) [Tannin IA, (11aR,13S,14R,15R,15aS)-2,3,4,5,6,7,14,15-octahydroxy-13-methoxy-11,11a,13,14,15,15a-hexahydrodibenzo[g,i]pyrano[3,2-b][1,5]dioxacycloundecine-9,17-dione]: in the series with CXCR4 tropic HIV NL4-3, the “TI (therapeutic index, cytotoxicity/antiviral activity)” value is roughly 909 and the IC50 was roughly 110 nM. In addition, the 50% cytotoxic concentration (CC50) at 40 h in series [1] is roughly 100000 nM.

Regarding `CO[C@@H]1OC2COC(=O)c3cc(O)c(O)c(O)c3-c3c(cc(O)c(O)c3O)C(=O)O[C@H]2C(OC(=O)c2cc(O)c(O)c(O)c2)C1OC(=O)c1cc(O)c(O)c(O)c1` (stereo partly drawn) [Tannin IB, (11aR,13S,14R,15S,15aR)-2,3,4,5,6,7-hexahydroxy-13-methoxy-9,17-dioxo-9,11,11a,13,14,15,15a,17-octahydrodibenzo[g,i]pyrano[3,2-b][1,5]dioxacycloundecine-14,15-diyl-bis (3,4,5-trihydroxybenzoate)], in the series on CXCR4 tropic HIV NL4-3, the “TI (therapeutic index, cytotoxicity/antiviral activity)” value is given as “about 900” and the IC50 is roughly 120 nM. The “Inhibition of CXCR4 (NL4-3) tropic HIV strain” value in the series with CXCR4 tropic HIV NL4-3 (FIG. 2) is given as “effectively able to inhibit”. For the same compound, the “Enhancement of the antiviral activity of AMD3100” value with CXCR4 tropic HIV NL4-3 (combination with 3 μM AMD3100, increasing concentrations of IB, HIV NL-4-3, FIG. 3) is “more than a log”. The “Inhibition of CCR5 (AD8) tropic HIV strain” value in the series on CCR5 tropic HIV AD8 was “effectively able to inhibit”. The cytotoxic concentration (CC50) at 40 h in series [1] is greater than 100000 nM.
